This note sets out measurements from ChEMBL document CHEMBL4813953, “Kinetics-Driven Drug Design Strategy for Next-Generation Acetylcholinesterase Inhibitors to Clinical Candidate” (J Med Chem, 2021).

Data set [1] in a line: Clearance in Beagle dog at 0.25 mg/kg, iv. The following applies: in vivo. It is filed as ADME, organism-based, Canis lupus familiaris.
Data set [2] in a line: Cmax in human plasma at 12 mg, po. It counts as ADME, cell-free. Details: route oral, dose 12 mg.
Data set [3] in a line: Efflux ratio of apparent permeability across basolateral to apical side over apical to basolateral side in human Caco-2 cells. It is filed as ADME, cell-based. For orientation: Passage across Caco-2 layers is used to estimate intestinal permeability.
Data set [4] is described as follows: Half life in Sprague-Dawley rat brain at 10 mg/kg, po. It counts as ADME, organism-based.
A short description of data set [5]: AUC(0 to infinity) in Sprague-Dawley rat brain at 10 mg/kg, po. It is filed as ADME, organism-based. Details: route oral, time infinity, dose 10 mg/kg.
Data set [6] in a line: Oral bioavailability in Beagle dog at 0.25 mg/kg. It is filed as ADME, organism-based, Canis lupus familiaris. The following applies: in vivo.
The nature of data set [7]: Toxicity in Beagle dog assessed as effect on blood pressure at 0.1 to 1 mg/kg. It counts as organism-based, Canis lupus familiaris. The following applies: in vivo, dose 0.1-1 mg/kg.
The nature of data set [8]: Volume of distribution at steady state in Beagle dog at 0.5 mg/kg, po or iv. It is filed as ADME, organism-based, Canis lupus familiaris. The conditions noted are these: in vivo, read-out: Vdss.
A short description of data set [9]: Toxicity in Beagle dog assessed as effect on respiration at 0.1 to 1 mg/kg. It is filed as organism-based, Canis lupus familiaris. The conditions noted are these: in vivo, dose 0.1-1 mg/kg.
Data set [10] is described as follows: Half life in Sprague-Dawley rat plasma at 10 mg/kg, po. It is filed as ADME, organism-based.
Data set [11] is described as follows: Cardiotoxicity in Beagle dog assessed as effect on […] at 0.1 to 1 mg/kg. It is filed as toxicity, organism-based, Canis lupus familiaris. The following applies: in vivo, dose 0.1-1 mg/kg.
Data set [12] is described as follows: Tmax in human plasma at 4 mg, po. It is filed as ADME, cell-free.
Data set [13] in a line: Protein binding in human plasma. It is filed as ADME, cell-free. The following applies: read-out: PPB (converted).
Data set [14] can be described thus: Cmax in Sprague-Dawley rat plasma at 10 mg/kg, po. It is filed as ADME, organism-based. Details: route oral, dose 10 mg/kg.
Data set [15] can be described thus: Genotoxicity in Salmonella typhimurium TA100 by Ames test. It is filed as toxicity. The conditions noted are these: salmonella enterica subsp. enterica serovar typhimurium. A general note: The Ames test uses bacterial strains that need an amino acid and regain growth without it when mutated back.
Data set [16] in a line: Cardiotoxicity in Beagle dog assessed as effect on QRS interval at 0.1 to 1 mg/kg. The conditions noted are these: in vivo, dose 0.1-1 mg/kg. It counts as toxicity, organism-based, Canis lupus familiaris.

Usually clearance stands for a measure of how efficiently the substance is removed, as volume per time. A high value points to efficient removal. By Cmax is commonly meant the highest concentration seen after dosing. In general, efflux ratio refers to the permeability from basolateral to apical divided by that in the opposite direction, in the common usage. As usually defined, the half-life is the time needed for the level to fall by half in the phase considered. Low values mean rapid decline, high ones slow decline. One may read the AUC(0-inf) as the area under the concentration-time curve extrapolated to infinity. For orientation: bioavailability means the share of a dose that reaches the circulation, judged against a reference dose that is usually intravenous. A word on the Tmax: it is the time at which the peak concentration occurs.

Take `COc1cc2c(cc1OC)C(=O)C(CC1(F)CCN(Cc3ccccc3F)CC1)C2` (stereo unspecified): in data set [1], the clearance was 17.5 mL/min/kg. Also, the Cmax came out at 23.5 ng/mL in data set [2] and 215 ng/mL in [14]. In data set [3], the efflux ratio turned out to be 0.67. The half-life in data set [4] was 6.99 h; in [10], 5.57 h. For the same compound, in data set [5], the AUC(0-inf) is 6430 ng·h/mL. Besides, the bioavailability in [6] came to 61.3%. The Activity result in data set [7], in [9], in data set [11], in data set [15] and in data set [16] was “Non-Toxic” in each case. Besides, the Vd in data set [8] turned out to be 23.2 L/kg. The Tmax in [12] turned out to be 0.75 h. For the same compound, the fraction unbound in [13] was 0.022.
